Key:
[1] = test system: patients with a first episode of recurrent pericarditis; conditions: conventional treatment with aspirin alone, or the same plus colchicine 0.5-1.0 mg/d for 6 months; cited from earlier work
[2] = test system: patients with a first episode of acute pericarditis; conditions: conventional treatment with aspirin, or the same plus colchicine 0.5 to 1.0 mg/day for 3 months; p=0.004; cited from earlier work
[3] = test system: patients with stable coronary disease; conditions: 0.5 mg/day in addition to statins and other standard secondary prevention therapies; Nidorf et al., JACC 2013; cited from earlier work
[4] = test system: patients with stable coronary disease; experiment: LoDoCo trial: colchicine 0.5 mg/day added to standard secondary prevention therapy; assay type: in vivo, human
Description: This study is described in PCT/AU2013/001261 and is hereby incorporated in its entirety by reference.
All outcomes were evaluated by an experienced adjudicator blinded to the treatment allocation.
Patients with a history of bypass surgery were only eligible if they had undergone bypass surgery more than 10 years before, or had angiographic evidence of graft failure or had undergone stenting since their bypass surgery. All patients signed informed consent before randomization.
The randomization sequence was computer generated, kept concealed from the investigators at all times and was managed by a research assistant who had no involvement in the evaluation or management of study patients. […] Patients who were intolerant to therapy remained in the study, and were followed in the usual manner and included in the primary intention to treat analysis.
The drug was dispensed by their usual chemist, and if requested, patients were reimbursed for the cost of these scripts. All other treatments were continued as usual.
Patient compliance with treatment and outcome data were collected at routine follow up visits and at the time of any unplanned hospital admission. An acute coronary syndrome (ACS) was defined as either (a) Acute Myocardial Infarction (AMI), as evidenced by acute ischemic chest pain associated with a rise in serum troponin above the upper limit of normal or (b) Unstable Angina (UA), as evidenced by a recent acceleration of the patient's angina unassociated with a rise in serum troponin but associated with angiographic evidence of a change in the patient's coronary anatomy. (Unstable Angina Braunwald classification types IB and IIB). The ACS was characterized as being stent-related if there was evidence of significant in-stent stenosis or acute stent thrombosis. Out of Hospital Cardiac Arrest was defined as either a sudden death as evidenced on the patient's death certificate, or a non-fatal out of hospital cardiac arrest, defined as a recovery from sudden collapse associated with documented asystole, ventricular tachycardia or ventricular fibrillation. Noncardioembolic ischemic stroke was defined as CT or MRI proven ischemic stroke adjudged by the treating neurologist as not being due to atrial fibrillation or intracranial hemorrhage.
The primary efficacy outcome was the composite, ACS, fatal or non-fatal out of hospital cardiac arrest or non-cardio-embolic ischemic stroke. Secondary outcomes were (a) individual components of the primary outcome, and (b) the components of ACS unrelated to stent disease.
The pre-specified study duration was a minimum follow up of two years in all patients. Accordingly the study was closed on May 31, 2012. During May, all living patients were contacted by phone to collect compliance and outcome data from the last date of follow-up.
Summary statistics, including mean and standard deviation were calculated for all baseline characteristics by treatment arm. All time to event outcomes were calculated in days by subtracting the date of randomization from either: (1) the date of event or death; or (2) the trial termination date for those patients not experiencing the defined event. As pre-specified, the primary efficacy analysis was based on the intention-to-treat principle. The intention-to-treat analysis included all randomized subjects and all events during the time from randomization to the trial termination. Trial termination date was fixed as May 31, 2012. A secondary pre-specified on-treatment analysis was also performed, based on patients who were both tolerant and compliant to therapy beyond the first month of randomization.
The time-to-first-event for all outcomes is presented using a Kaplan-Meier plot. […] The secondary outcomes were analysed similarly.

Row | Compound | recurrence rate, actuarial rates at 18 months [1] [%] | recurrence rate at 18 months [2] [%] | prevention of cardiovascular events in patients with stable coronary disease [3] | deaths ([4]; colchicine group (282), all of non-cardiac causes, 10 in control group) [patients] | primary outcome, number needed to treat ([4]; intention to treat) | ACS unrelated to stent disease associated with UA, patients ([4]; intention to treat, 0.5 mg/day) [%] | ACS unrelated to stent disease associated with an AMI, patients ([4]; intention to treat, 0.5 mg/day) [%] | patients presenting with an ACS ([4]; intention to treat, 0.5 mg/day) [%] | patients presenting with an ACS unrelated to stent disease ([4]; intention to treat, 0.5 mg/day) [%] | primary outcome (composite of ACS, fatal or non-fatal out of hospital cardiac arrest or non-cardio-embolic ischemic stroke), patients with event ([4]; intention to treat, 0.5 mg/day, median follow up 36 months) [%] | events in patients compliant and tolerant to therapy beyond the first month ([4]; on-treatment analysis, 0.5 mg/day) [%] | out of hospital cardiac arrest and non-cardio-embolic ischemic stroke ([4]; treatment group vs control)
1 | CC(=O)Oc1ccccc1C(=O)O [aspirin] | 50.6 | 32.3 | – | – | – | – | – | – | – | – | – | –
2 | COc1cc2c(c(OC)c1OC)-c1ccc(OC)c(=O)cc1[C@@H](NC(C)=O)CC2 [colchicine, N[5,6,7,9-tetrahydro-1,2,3,10-tetratmethoxy 9-oxobenzo[a]heptalen-7-yl],(S)-acetamide] | 24.0 | 10.7 | appeared effective | 4 | 11 | 1.8 | 1.4 | 4.6 | 3.2 | 5.3 | 4.5 | reduced
